Data taken from patent US12678446B2 (PFIZER INC., priority 2020, dated 2026).
pEC50: −log10 of the molar value.

Key:
cell toxicity CC50 = type: cell-based; conditions: human; Hep-G2 cells; mean of at least two experiments; read-out: Cell Cytotoxicity CC50
[1] = test system: RSV (RSV A2 ECACC, 0709161v); test: RSV plaque reduction assay; type: cell-based, respiratory syncytial virus; conditions: human respiratory syncytial virus, HepG2, read-out: RSV A2 Plaque EC50, RSV A2 in Hep-G2 cells; mean of at least two experiments unless noted (n = 1)
How it was run: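 Eight-point compound dilutions were premixed with RSV A2 (100 PFU/well) and applied to confluent Hep-G2 cells for 2 h, followed by a 2-day incubation at 37° C. under compound-containing 0.8% CMC overlay. EC50 comes from immunostained plaque counts relative to untreated virus wells, averaged over ≥2 runs.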

COc1cccc(F)c1-c1nn2c(c1C(=O)N[C@H]1N=C(c3ccccc3)c3cccc(F)c3NC1=O)OCCC2 [Example 139, 2-(2-Fluoro-6-methoxyphenyl)-N-[(3S)-9-fluoro-2-oxo-5-phenyl-1,3-dihydro-1,4-benzodiazepin-3-yl]-6,7-dihydro-5H-pyrazolo[5,1-b][1,3]oxazine-3-carboxamide]
CC50 (cell toxicity CC50): > 25 µM
pEC50 [1]: 7.18

Cc1cccc(F)c1-c1nn2c(c1C(=O)N[C@H]1N=C(c3ccccc3)c3cccc(F)c3NC1=O)OCCC2 [Example 140, 2-(2-Fluoro-6-methylphenyl)-N-[(3S)-9-fluoro-2-oxo-5-phenyl-1,3-dihydro-1,4-benzodiazepin-3-yl]-6,7-dihydro-5H-pyrazolo[5,1-b][1,3]oxazine-3-carboxamide]
CC50 (cell toxicity CC50): > 25 µM
pEC50 [1]: 7.42

C[C@@H]1CCn2nc(-c3ccc(S(C)(=O)=O)cc3F)c(C(=O)N[C@H]3N=C(c4ccccc4)c4ccccc4NC3=O)c2O1 [Example 141, (5R)-2-(2-Fluoro-4-methylsulfonylphenyl)-5-methyl-N-[(3S)-2-oxo-5-phenyl-1,3-dihydro-1,4-benzodiazepin-3-yl]-6,7-dihydro-5H-pyrazolo[5,1-b][1,3]oxazine-3-carboxamide]
CC50 (cell toxicity CC50): > 25 µM
pEC50 [1]: 7.70

NC(=O)c1ccc(-c2nn3c(c2C(=O)N[C@H]2N=C(c4ccccc4)c4cccc(F)c4NC2=O)OCCC3)c(F)c1 [Example 142, 2-(4-Carbamoyl-2-fluorophenyl)-N-[(3S)-9-fluoro-2-oxo-5-phenyl-1,3-dihydro-1,4-benzodiazepin-3-yl]-6,7-dihydro-5H-pyrazolo[5,1-b][1,3]oxazine-3-carboxamide]
CC50 (cell toxicity CC50): > 25 µM
pEC50 [1]: 6.55

CS(=N)(=O)c1ccc(-c2nn3c(c2C(=O)N[C@H]2N=C(c4ccccc4)c4cccc(F)c4NC2=O)OCCC3)c(F)c1 (stereo partly drawn) [Example 143, 2-[2-Fluoro-4-(methylsulfonimidoyl)phenyl]-N-[(3S)-9-fluoro-2-oxo-5-phenyl-1,3-dihydro-1,4-benzodiazepin-3-yl]-6,7-dihydro-5H-pyrazolo[5,1-b][1,3]oxazine-3-carboxamide]
CC50 (cell toxicity CC50): > 25 µM
pEC50 [1]: 6.83

COC1CN(c2ccc(-c3nn4c(c3C(=O)N[C@H]3N=C(c5ccccc5)c5cccc(F)c5NC3=O)O[C@H](C)CC4)cn2)C1 [Example 144, (5R)-N-[(3S)-9-fluoro-2-oxo-5-phenyl-1,3-dihydro-1,4-benzodiazepin-3-yl]-2-[6-(3-methoxyazetidin-1-yl)pyridin-3-yl]-5-methyl-6,7-dihydro-5H-pyrazolo[5,1-b][1,3]oxazine-3-carboxamide]
CC50 (cell toxicity CC50): > 25 µM
pEC50 [1]: 7.00

CO[C@@H]1CCN(c2ccc(-c3nn4c(c3C(=O)N[C@H]3N=C(c5ccccc5)c5cccc(F)c5NC3=O)O[C@H](C)CC4)cn2)C1 [Example 145, (5R)-N-[(3S)-9-fluoro-2-oxo-5-phenyl-1,3-dihydro-1,4-benzodiazepin-3-yl]-2-[6-[(3R)-3-methoxypyrrolidin-1-yl]pyridin-3-yl]-5-methyl-6,7-dihydro-5H-pyrazolo[5,1-b][1,3]oxazine-3-carboxamide]
CC50 (cell toxicity CC50): > 25 µM
pEC50 [1]: 6.56

CO[C@H]1CCN(c2ccc(-c3nn4c(c3C(=O)N[C@H]3N=C(c5ccccc5)c5cccc(F)c5NC3=O)O[C@H](C)CC4)cn2)C1 [Example 146, (5R)-N-[(3S)-9-fluoro-2-oxo-5-phenyl-1,3-dihydro-1,4-benzodiazepin-3-yl]-2-[6-[(3S)-3-methoxypyrrolidin-1-yl]pyridin-3-yl]-5-methyl-6,7-dihydro-5H-pyrazolo[5,1-b][1,3]oxazine-3-carboxamide]
CC50 (cell toxicity CC50): > 25 µM
pEC50 [1]: 6.53

Cn1ncc2c(-c3nn4c(c3C(=O)N[C@H]3N=C(c5ccccc5)c5cccc(F)c5NC3=O)OCCC4)cccc21 [Example 147, N-[(3S)-9-fluoro-2-oxo-5-phenyl-1,3-dihydro-1,4-benzodiazepin-3-yl]-2-(1-methylindazol-4-yl)-6,7-dihydro-5H-pyrazolo[5,1-b][1,3]oxazine-3-carboxamide]
CC50 (cell toxicity CC50): > 25 µM
pEC50 [1]: 6.86

CC(C)n1cc(-c2nn3c(c2C(=O)N[C@H]2N=C(c4ccccc4)c4cccc(F)c4NC2=O)OCCC3)cn1 [Example 148, N-[(3S)-9-fluoro-2-oxo-5-phenyl-1,3-dihydro-1,4-benzodiazepin-3-yl]-2-(1-propan-2-ylpyrazol-4-yl)-6,7-dihydro-5H-pyrazolo[5,1-b][1,3]oxazine-3-carboxamide]
CC50 (cell toxicity CC50): > 25 µM
pEC50 [1]: 7.14

Cn1ncc2c(-c3nn4c(c3C(=O)N[C@H]3N=C(c5ccccc5)c5ccccc5NC3=O)OCCC4)cccc21 [Example 149, 2-(1-Methylindazol-4-yl)-N-[(3S)-2-oxo-5-phenyl-1,3-dihydro-1,4-benzodiazepin-3-yl]-6,7-dihydro-5H-pyrazolo[5,1-b][1,3]oxazine-3-carboxamide]
CC50 (cell toxicity CC50): > 25 µM
pEC50 [1]: 6.71

O=C(N[C@H]1N=C(c2ccccc2)c2cccc(F)c2NC1=O)c1c(-c2cnn(CC(F)(F)F)c2)nn2c1OCCC2 [Example 150, N-[(3S)-9-fluoro-2-oxo-5-phenyl-1,3-dihydro-1,4-benzodiazepin-3-yl]-2-[1-(2,2,2-trifluoroethyl)pyrazol-4-yl]-6,7-dihydro-5H-pyrazolo[5,1-b][1,3]oxazine-3-carboxamide]
CC50 (cell toxicity CC50): > 25 µM
pEC50 [1]: 7.21

O=C(N[C@H]1N=C(c2ccccc2)c2ccccc2NC1=O)c1c(-c2cnn(CC(F)(F)F)c2)nn2c1OCCC2 [Example 151, N-[(3S)-2-oxo-5-phenyl-1,3-dihydro-1,4-benzodiazepin-3-yl]-2-[1-(2,2,2-trifluoroethyl)pyrazol-4-yl]-6,7-dihydro-5H-pyrazolo[5,1-b][1,3]oxazine-3-carboxamide]
CC50 (cell toxicity CC50): > 25 µM
pEC50 [1]: 6.97

O=C(N[C@H]1N=C(c2ccccc2)c2cccc(F)c2NC1=O)c1c(-c2cnn(C3CCOCC3)c2)nn2c1OCCC2 [Example 152, N-[(3S)-9-Fluoro-2-oxo-5-phenyl-1,3-dihydro-1,4-benzodiazepin-3-yl]-2-[1-(oxan-4-yl)pyrazol-4-yl]-6,7-dihydro-5H-pyrazolo[5,1-b][1,3]oxazine-3-carboxamide]
CC50 (cell toxicity CC50): > 25 µM
pEC50 [1]: 7.08

C[C@@H]1CCn2nc(-c3ccc(CO)cc3F)c(C(=O)N[C@H]3N=C(c4ccccc4)c4ccccc4NC3=O)c2O1 [Example 154, (5R)-2-[2-Fluoro-4-(hydroxymethyl)phe-nyl]-5-methyl-N-[(3S)-2-oxo-5-phenyl-1,3-dihydro-1,4-benzodiazepin-3-yl]-6,7-dihydro-5H-pyrazolo[5,1-b][1,3]oxazine-3-carboxamide]
CC50 (cell toxicity CC50): > 25 µM
pEC50 [1]: 7.04

C[C@@H]1CCn2nc(-c3ccc(CO)nc3)c(C(=O)N[C@H]3N=C(c4ccccc4)c4cccc(F)c4NC3=O)c2O1 [Example 155, (5R)-N-[(3S)-9-fluoro-2-oxo-5-phenyl-1,3-dihydro-1,4-benzodiazepin-3-yl]-2-[6-(hydroxymethyl)pyri-din-3-yl]-5-methyl-6,7-dihydro-5H-pyrazolo[5,1-b][1,3]oxazine-3-carboxamide]
CC50 (cell toxicity CC50): > 25 µM
pEC50 [1]: 6.66

C[C@H]1CCn2nc(-c3cnn(C4CCOCC4)c3)c(C(=O)N[C@H]3N=C(c4ccccc4)c4cccc(F)c4NC3=O)c2O1 [Example 156, (5S)-N-[(3S)-9-fluoro-2-oxo-5-phenyl-1,3-dihydro-1,4-benzodiazepin-3-yl]-5-methyl-2-[1-(oxan-4-yl)pyrazol-4-yl]-6,7-dihydro-5H-pyrazolo[5,1-b][1,3]oxazine-3-carboxamide]
CC50 (cell toxicity CC50): > 25 µM
pEC50 [1]: 7.41

C[C@H]1CCn2nc(-c3cnn(CC(F)(F)F)c3)c(C(=O)N[C@H]3N=C(c4ccccc4)c4cccc(F)c4NC3=O)c2O1 [Example 157, (5S)-N-[(3S)-9-fluoro-2-oxo-5-phenyl-1,3-dihydro-1,4-benzodiazepin-3-yl]-5-methyl-2-[1-(2,2,2-trifluoroethyl)pyrazol-4-yl]-6,7-dihydro-5H-pyrazolo[5,1-b][1,3]oxazine-3-carboxamide]
CC50 (cell toxicity CC50): > 25 µM
pEC50 [1]: 7.32

CCn1cc(-c2nn3c(c2C(=O)N[C@H]2N=C(c4ccccc4)c4cccc(F)c4NC2=O)O[C@@H](C)CC3)cn1 [Example 158, (5S)-2-(1-Ethylpyrazol-4-yl)-N-[(3S)-9-fluoro-2-oxo-5-phenyl-1,3-dihydro-1,4-benzodiazepin-3-yl]-5-methyl-6,7-dihydro-5H-pyrazolo[5,1-b][1,3]oxazine-3-carboxamide]
CC50 (cell toxicity CC50): > 25 µM
pEC50 [1]: 7.32

C[C@@H]1CCn2nc(-c3cn[nH]c3)c(C(=O)N[C@H]3N=C(c4ccccc4)c4cccc(F)c4NC3=O)c2O1 [Example 159, (5R)-N-[(3S)-9-fluoro-2-oxo-5-phenyl-1,3-dihydro-1,4-benzodiazepin-3-yl]-5-methyl-2-(1H-pyrazol-4-yl)-6,7-dihydro-5H-pyrazolo[5,1-b][1,3]oxazine-3-carboxamide]
CC50 (cell toxicity CC50): > 25 µM
pEC50 [1]: 6.40

O=C(N[C@H]1N=C(c2ccccc2)c2cccc(F)c2NC1=O)c1c(-c2ccccc2F)nn2c1OCC(O)C2 (stereo partly drawn) [Example 160, 2-(2-Fluorophenyl)-6-hydroxy-N-[(3S)-9-fluoro-2-oxo-5-phenyl-1,3-dihydro-1,4-benzodiazepin-3-yl]-6,7-dihydro-5H-pyrazolo[5,1-b][1,3]oxazine-3-carboxamide]
CC50 (cell toxicity CC50): > 25 µM
pEC50 [1]: 6.83

C[C@@H]1CCn2nc(C3CCN(S(C)(=O)=O)CC3)c(C(=O)N[C@H]3N=C(c4ccccc4)c4cccc(F)c4NC3=O)c2O1 [Example 161, (5R)-N-[(3S)-9-fluoro-2-oxo-5-phenyl-1,3-dihydro-1,4-benzodiazepin-3-yl]-5-methyl-2-(1-methylsulfonylpiperi-din-4-yl)-6,7-dihydro-5H-pyrazolo[5,1-b][1,3]oxazine-3-carboxamide]
CC50 (cell toxicity CC50): > 25 µM
pEC50 [1]: 7.27
